Measured values from PubChem BioAssay AID260 (DTP/NCI, 2004).
Where “and” joins values, the source holds several entries; their conditions need not be identical. Equal entries are not always repeated. Inconclusive results and toxic doses are left out.

System: CD2F1 mice, intracerebral L1210 leukemia, survival T/C
Assay: NCI In Vivo Anticancer Drug Screen. Data for tumor model L1210 Leukemia (intracerebral) in CD2F1 (CDF1) mice
Conditions: higher = longer survival
Method: The antitumor activity of compounds was measured in mice bearing transplantable tumors. Survival or tumor size were measured and the results are expressed as the measurement made in the treated group (T) divided by the measurement made in the vehicle treated control group (C). The tumor model used in this assay is L1210 Leukemia (intracerebral) in CD2F1 (CDF1) mice

[1] = endpoint: median survival time, dose: 40.0 mg/kg/injection, schedule: Q01DX001 (ip), vehicle: saline
[2] = endpoint: median survival time, dose: 80.0 mg/kg/injection, schedule: Q01DX001 (ip), vehicle: saline
[3] = endpoint: median survival time, dose: 16.0 mg/kg/injection, schedule: Q01DX005 (ip), vehicle: saline
[4] = endpoint: median survival time, dose: 32.0 mg/kg/injection, schedule: Q01DX005 (ip), vehicle: saline
[5] = endpoint: median survival time, dose: 4.0 mg/kg/injection, schedule: Q01DX005 (ip), vehicle: suspension in saline
[6] = endpoint: median survival time, dose: 8.0 mg/kg/injection, schedule: Q01DX005 (ip), vehicle: suspension in saline
[7] = endpoint: median survival time, dose: 16.0 mg/kg/injection, schedule: Q01DX005 (ip), vehicle: suspension in saline
[8] = endpoint: median survival time, dose: 32.0 mg/kg/injection, schedule: Q01DX005 (ip), vehicle: suspension in saline

CN(C)c1nc(N(C)C)nc(N(C)C)n1
T/C (endpoint: median survival time, dose: 100.0 mg/kg/injection, schedule: Q01DX005 (ip), vehicle: saline with Tween-80): 121 % of control | T/C (endpoint: median survival time, dose: 100.0 mg/kg/injection, schedule: Q01DX005 (ip), vehicle: suspension in saline): 102 % of control | T/C (endpoint: median survival time, dose: 200.0 mg/kg/injection, schedule: Q01DX005 (ip), vehicle: saline with Tween-80): 101 % of control | T/C (endpoint: median survival time, dose: 200.0 mg/kg/injection, schedule: Q01DX005 (ip), vehicle: suspension in saline): 101 % of control | T/C (endpoint: median survival time, dose: 400.0 mg/kg/injection, schedule: Q01DX005 (ip), vehicle: suspension in saline): 100 % of control | T/C (endpoint: median survival time, dose: 800.0 mg/kg/injection, schedule: Q01DX005 (ip), vehicle: suspension in saline): 118 % of control

CN(C)N=Nc1cccc(C(N)=O)c1
T/C (endpoint: median survival time, dose: 10.0 mg/kg/injection, schedule: Q01DX005 (ip), vehicle: Klucel (hydroxypropylcellulose) (HPC)): 104 % of control and 112 % of control | T/C (endpoint: median survival time, dose: 20.0 mg/kg/injection, schedule: Q01DX005 (ip), vehicle: Klucel (hydroxypropylcellulose) (HPC)): 120 % of control and 115 % of control | T/C (endpoint: median survival time, dose: 80.0 mg/kg/injection, schedule: Q01DX005 (ip), vehicle: Klucel (hydroxypropylcellulose) (HPC)): 102 % of control and 110 % of control

CN(Cc1cnc2nc(N[Si](C)(C)C)nc(N[Si](C)(C)C)c2n1)c1ccc(C(=O)NC(CCC(=O)O[Si](C)(C)C)C(=O)O[Si](C)(C)C)cc1 (stereo not drawn)
T/C (endpoint: median survival time, dose: 1.9 mg/kg/injection, schedule: Q04DX003 (ip), vehicle: saline): 107 % of control | T/C (endpoint: median survival time, dose: 3.8 mg/kg/injection, schedule: Q04DX003 (ip), vehicle: saline): 121 % of control | T/C (endpoint: median survival time, dose: 30.0 mg/kg/injection, schedule: Q04DX003 (ip), vehicle: saline): 150 % of control | T/C (endpoint: median survival time, dose: 60.0 mg/kg/injection, schedule: Q04DX003 (ip), vehicle: saline): 157 % of control

CC[n+]1ccc(Nc2ccc(NC(=O)c3ccc(Nc4cc[n+](CC)c5ccc(N)cc45)cc3)cc2)cc1
T/C (endpoint: mean survival time, dose: 2.0 mg/kg/injection, schedule: Q01DX009 (ip), vehicle: saline): 110 % of control | T/C (endpoint: mean survival time, dose: 4.0 mg/kg/injection, schedule: Q01DX009 (ip), vehicle: saline): 111 % of control

CN(C)CCCN1c2ccccc2Sc2ccc(Cl)cc21
T/C (endpoint: median survival time, dose: 50.0 mg/kg/injection, schedule: Q01DX001 (ip), vehicle: water): 113 % of control

COc1ccc2cc1Oc1ccc(cc1)C[C@H]1c3cc(c(OC)cc3CCN1C)Oc1c(OC)c(OC)cc3c1[C@H](C2)N(C)CC3
T/C (endpoint: median survival time, dose: 50.0 mg/kg/injection, schedule: Q01DX005 (ip), vehicle: Klucel (hydroxypropylcellulose) (HPC)): 90 % of control and 91 % of control | T/C (endpoint: median survival time, dose: 100.0 mg/kg/injection, schedule: Q01DX005 (ip), vehicle: Klucel (hydroxypropylcellulose) (HPC)): 95 % of control and 98 % of control | T/C (endpoint: median survival time, dose: 200.0 mg/kg/injection, schedule: Q01DX005 (ip), vehicle: Klucel (hydroxypropylcellulose) (HPC)): 95 % of control and 104 % of control | T/C (endpoint: median survival time, dose: 400.0 mg/kg/injection, schedule: Q01DX005 (ip), vehicle: Klucel (hydroxypropylcellulose) (HPC)): 101 % of control

C[C@]12CCC(=O)C=C1CC[C@@H]1[C@@H]2[C@@H](O)C[C@@]2(C)[C@H]1CC[C@]2(O)C(=O)COP(=O)(O)OCC1OC(n2ccc(N)nc2=O)C(O)C1O (stereo partly drawn)
T/C (endpoint: median survival time, dose: 18.75 mg/kg/injection, schedule: Q01DX005 (ip), vehicle: other): 116 % of control | T/C (endpoint: median survival time, dose: 150.0 mg/kg/injection, schedule: Q01DX005 (ip), vehicle: other): 160 % of control | T/C (endpoint: median survival time, dose: 300.0 mg/kg/injection, schedule: Q01DX005 (ip), vehicle: other): 169 % of control

CN(N=O)C(N)=O
T/C (endpoint: median survival time, dose: 0.5 mg/kg/injection, schedule: Q01DX009 (ip), vehicle: saline + alcohol): 98 % of control | T/C (endpoint: median survival time, dose: 1.0 mg/kg/injection, schedule: Q01DX009 (ip), vehicle: saline + alcohol): 105 % of control | T/C (endpoint: median survival time, dose: 2.0 mg/kg/injection, schedule: Q01DX009 (ip), vehicle: saline + alcohol): 105 % of control | T/C (endpoint: median survival time, dose: 2.5 mg/kg/injection, schedule: Q01DX001 (ip), vehicle: saline): 89 % of control | T/C (endpoint: median survival time, dose: 4.0 mg/kg/injection, schedule: Q01DX009 (ip), vehicle: saline + alcohol): 114 % of control | T/C (endpoint: median survival time, dose: 5.0 mg/kg/injection, schedule: Q01DX001 (ip), vehicle: saline): 92 % of control | T/C (endpoint: median survival time, dose: 10.0 mg/kg/injection, schedule: Q01DX001 (ip), vehicle: saline + alcohol): 102 % of control | T/C (endpoint: median survival time, dose: 10.0 mg/kg/injection, schedule: Q01DX001 (ip), vehicle: saline): 94 % of control | T/C (endpoint: median survival time, dose: 16.0 mg/kg/injection, schedule: Q01DX009 (ip), vehicle: saline + alcohol): 196 % of control | T/C (endpoint: median survival time, dose: 20.0 mg/kg/injection, schedule: Q01DX001 (ip), vehicle: saline + alcohol): 105 % of control | T/C (endpoint: median survival time, dose: 20.0 mg/kg/injection, schedule: Q01DX001 (ip), vehicle: saline): 103 % of control | T/C (endpoint: median survival time, dose: 40.0 mg/kg/injection, schedule: Q01DX001 (ip), vehicle: saline + alcohol): 107 % of control | T/C [1]: 121 % of control | T/C (endpoint: median survival time, dose: 80.0 mg/kg/injection, schedule: Q01DX001 (ip), vehicle: saline + alcohol): 112 % of control | T/C [2]: 110 % of control

CN=NNc1nc[nH]c1C(N)=O
T/C (endpoint: median survival time, dose: 16.0 mg/kg/injection, schedule: Q01DX005 (ip), vehicle: saline with Tween-80): 107 % of control | T/C (endpoint: median survival time, dose: 32.0 mg/kg/injection, schedule: Q01DX005 (ip), vehicle: saline with Tween-80): 101 % of control | T/C (endpoint: median survival time, dose: 64.0 mg/kg/injection, schedule: Q01DX005 (ip), vehicle: saline with Tween-80): 112 % of control | T/C (endpoint: median survival time, dose: 128.0 mg/kg/injection, schedule: Q01DX005 (ip), vehicle: saline with Tween-80): 107 % of control | T/C (endpoint: median survival time, dose: 256.0 mg/kg/injection, schedule: Q01DX005 (ip), vehicle: saline with Tween-80): 86 % of control

Nc1nc(=S)c2ncn(C3CC(O)C(CO)O3)c2[nH]1 (stereo not drawn)
T/C (endpoint: mean survival time, dose: 2.5 mg/kg/injection, schedule: Q01DX001 (ip), vehicle: steriod suspending solution): 114 % of control | T/C (endpoint: mean survival time, dose: 10.0 mg/kg/injection, schedule: Q01DX001 (ip), vehicle: steriod suspending solution): 118 % of control | T/C (endpoint: mean survival time, dose: 20.0 mg/kg/injection, schedule: Q01DX001 (ip), vehicle: steriod suspending solution): 120 % of control

Nc1ncnc2c1ncn2C1OC(COP(=O)(O)O)C(O)C1O (stereo not drawn)
T/C (endpoint: median survival time, dose: 100.0 mg/kg/injection, schedule: Q01DX009 (ip), vehicle: saline): 109 % of control and 110 % of control and 112 % of control | T/C (endpoint: median survival time, dose: 200.0 mg/kg/injection, schedule: Q01DX009 (ip), vehicle: saline): 97 % of control and 104 % of control and 115 % of control | T/C (endpoint: median survival time, dose: 400.0 mg/kg/injection, schedule: Q01DX009 (ip), vehicle: saline): 96 % of control and 101 % of control and 117 % of control | T/C (endpoint: median survival time, dose: 800.0 mg/kg/injection, schedule: Q01DX009 (ip), vehicle: saline): 101 % of control and 108 % of control

O=P1(N(CCCl)CCCl)NCCCO1 (stereo not drawn)
T/C [1]: 100 % of control | T/C [2]: 104 % of control | T/C (endpoint: median survival time, dose: 160.0 mg/kg/injection, schedule: Q01DX001 (ip), vehicle: saline): 112 % of control | T/C (endpoint: median survival time, dose: 320.0 mg/kg/injection, schedule: Q01DX001 (ip), vehicle: saline): 105 % of control

COc1cc([C@@H]2c3cc4c(cc3[C@@H](OC3OC5COC(C)OC5C(O)C3O)[C@H]3COC(=O)[C@H]23)OCO4)cc(OC)c1O (stereo partly drawn)
T/C (endpoint: median survival time, dose: 0.5 mg/kg/injection, schedule: Q01DX009 (ip), vehicle: saline): 103 % of control | T/C (endpoint: median survival time, dose: 1.0 mg/kg/injection, schedule: Q01DX009 (ip), vehicle: saline): 101 % of control | T/C (endpoint: median survival time, dose: 2.0 mg/kg/injection, schedule: Q01DX009 (ip), vehicle: saline): 94 % of control | T/C (endpoint: median survival time, dose: 4.0 mg/kg/injection, schedule: Q01DX009 (ip), vehicle: saline): 91 % of control | T/C (endpoint: median survival time, dose: 8.0 mg/kg/injection, schedule: Q01DX009 (ip), vehicle: saline): 102 % of control

F
T/C [3]: 100 % of control and 104 % of control | T/C [4]: 88 % of control and 105 % of control

C[n+]1c2ccccc2nc2c(N)cc(N)cc21
T/C [5]: 93 % of control and 98 % of control | T/C [6]: 102 % of control | T/C [7]: 96 % of control and 98 % of control | T/C [8]: 96 % of control and 97 % of control

CC1CC(C)(O)CC(C(O)CC2CC(=O)NC(=O)C2)C1=O (stereo not drawn)
T/C (endpoint: mean survival time, dose: 0.02 mg/kg/injection, schedule: Q01DX009 (ip), vehicle: saline): 97 % of control | T/C (endpoint: mean survival time, dose: 0.04 mg/kg/injection, schedule: Q01DX009 (ip), vehicle: saline): 92 % of control | T/C (endpoint: mean survival time, dose: 0.08 mg/kg/injection, schedule: Q01DX009 (ip), vehicle: saline): 110 % of control | T/C (endpoint: mean survival time, dose: 0.16 mg/kg/injection, schedule: Q01DX009 (ip), vehicle: saline): 100 % of control | T/C (endpoint: mean survival time, dose: 0.32 mg/kg/injection, schedule: Q01DX009 (ip), vehicle: saline): 106 % of control

CCC1=C(c2ccc(OC)cc2)CCC(C(=O)O)C1C (stereo not drawn)
T/C (endpoint: median survival time, dose: 4.0 mg/kg/injection, schedule: Q01DX005 (ip), vehicle: saline): 103 % of control | T/C [5]: 102 % of control | T/C (endpoint: median survival time, dose: 8.0 mg/kg/injection, schedule: Q01DX005 (ip), vehicle: saline): 114 % of control | T/C [6]: 102 % of control | T/C [3]: 112 % of control | T/C [7]: 96 % of control | T/C [4]: 102 % of control | T/C [8]: 104 % of control
